What was measured:
[1] = Inhibition of HCV NS5B J4 delta 21 polymerase; design: species or system Hepacivirus hominis
[2] = Inhibition of HCV NS5B RB01 polymerase; design: species or system Hepacivirus hominis
Hepatitis C virus = assay: Inhibition of HCV replicon by cell based assay; assay type: functional, organism-based, Hepacivirus hominis
Hepacivirus hominis = assay: Inhibition of HCV NS5B J4 delta 21 polymerase at 10 uM
[3] = Permeability across artificial membrane by PAMPA assay; assay type: ADME; conditions: read-out: permeability

`COC(=O)[C@H]1C[C@@](CC(C)C)(C(=O)OC)N(C(=O)c2ccc(C(F)(F)F)cc2)[C@H]1c1cccs1` showed an IC50 [1] of over 20 µM.

`CC(C)C[C@@]1(C(=O)O)C[C@H](C(=O)Nc2ccccc2)[C@H](c2nccs2)N1C(=O)c1ccc(C(C)(C)C)cc1` (stereo in doubt; 41) gave an IC50 [1] of 0.16 µM, an IC50 [2] of 3.1 µM and an IC50 (Hepatitis C virus; Hepatitis C virus) of 45 µM.

`CC(C)C[C@@]1(CO)C[C@H](C(=O)O)[C@H](c2cccs2)N1C(=O)c1ccc(C(F)(F)F)cc1` showed an inhibition (Hepacivirus hominis) of 0%.

Work on `CC(C)C[C@@]1(C(=O)O)C[C@H](CO)[C@H](c2cccs2)N1C(=O)c1ccc(C(F)(F)F)cc1` yielded an inhibition (Hepacivirus hominis) of 51%.

For `CC(C)C[C@@]1(C(=O)O)C[C@H](C(N)=O)[C@H](c2nccs2)N1C(=O)c1ccc(C(C)(C)C)cc1` (stereo in doubt; (-)32), the IC50 [1] was 2.5 µM.

Work on `CC(C)C[C@@]1(C(=O)O)C[C@H](C(=O)O)[C@H](c2nccs2)N1C(=O)c1ccc(C(C)(C)C)cc1` (stereo in doubt; (-)28) yielded an IC50 [1] of 2.36 µM.

`CC(C)C[C@@]1(C(=O)O)C[C@H](C(N)=O)[C@H](c2cccs2)N1C(=O)c1ccc(C(C)(C)C)cc1` showed an IC50 [1] of 0.33 µM.

Molecule `CC(C)C[C@@]1(C(=O)O)C[C@H](C(=O)NS(=O)(=O)Cc2ccccc2)[C@H](c2nccs2)N1C(=O)c1ccc(C(C)(C)C)cc1` has an IC50 [1] of 0.55 µM and an IC50 [2] of 4.23 µM.

In the case of `CC(C)C[C@@]1(C(=O)O)C[C@H](C(N)=O)[C@H](c2cccs2)N1C(=O)c1ccc(C(F)(F)F)cc1` (stereo in doubt; 19), the IC50 [1] is reported as 4.4 µM.

Work on `CC(C)C[C@@]1(C(=O)O)C[C@H](C(=O)NS(C)(=O)=O)[C@H](c2cccs2)N1C(=O)c1ccc(C(F)(F)F)cc1` yielded an IC50 [1] of 0.23 µM.

`CC(C)C[C@@]1(C(=O)O)C[C@H](C(=O)NS(=O)(=O)c2ccccc2)[C@H](c2nccs2)N1C(=O)c1ccc(C(C)(C)C)cc1` gave an IC50 [1] of 0.5 µM and an IC50 [2] of 3.15 µM.

With `CC(C)C[C@@]1(C(=O)O)C[C@H](C(=O)O)[C@H](c2nccs2)N1C(=O)c1ccc(C(C)(C)C)cc1` (stereo in doubt; 28) the IC50 [1] was 0.07 µM and the IC50 [2] was 3.8 µM.

With `CC(C)C[C@@]1(C(=O)O)C[C@H](C(N)=O)[C@H](c2nccs2)N1C(=O)c1ccc(C(C)(C)C)cc1` (stereo in doubt; (+)32) the IC50 [1] was 0.07 µM and the IC50 [2] was 3.8 µM.

`CC(C)C[C@@]1(C(=O)O)C[C@H](C(N)=O)[C@H](c2nccs2)N1C(=O)c1ccc(C(F)(F)F)cc1` showed an IC50 [1] of 2.05 µM.

In the case of `CC(C)C[C@@]1(C(=O)O)C[C@H](C(=O)NCc2ccccc2)[C@H](c2nccs2)N1C(=O)c1ccc(C(C)(C)C)cc1`, the IC50 [1] is reported as 8.29 µM and the IC50 [2] is reported as 68 µM.

Molecule `CC(C)C[C@@]1(C(=O)O)C[C@H](C(N)=O)[C@H](c2cccs2)N1C(=O)c1ccc(C(F)(F)F)cc1` (stereo in doubt; (+)29) has an IC50 [1] of 2.23 µM.

With `CC(C)C[C@@]1(C(=O)Nc2ccccc2)C[C@H](C(=O)O)[C@H](c2cccs2)N1C(=O)c1ccc(C(F)(F)F)cc1` the IC50 [1] was over 20 µM.

For `CC(C)C[C@@]1(C(=O)O)C[C@H](C(=O)O)[C@H](c2cccs2)N1C(=O)c1ccc(C(F)(F)F)cc1` (stereo in doubt; (-)1), the IC50 [1] was 18 µM.

Molecule `CC(C)C[C@@]1(C(=O)O)C[C@H](C(N)=O)[C@H](c2nccs2)N1C(=O)c1ccc(C(C)(C)C)cc1` (stereo in doubt; 32) has an IC50 [1] of 0.08 µM and an IC50 [2] of 4.4 µM.

With `CC(C)C[C@@]1(C(=O)O)C[C@H](C(=O)O)[C@H](c2cccs2)N1C(=O)c1ccc(C(F)(F)F)cc1` (stereo in doubt; 1) the IC50 [2] was 20 µM.

Work on `CC(C)C[C@@]1(C(=O)O)C[C@H](C(=O)O)[C@H](c2nccs2)N1C(=O)c1ccc(C(F)(F)F)cc1` yielded an IC50 [1] of 0.45 µM.

In the case of `CC(C)C[C@@]1(C(N)=O)C[C@H](C(=O)O)[C@H](c2cccs2)N1C(=O)c1ccc(C(F)(F)F)cc1`, the IC50 [1] is reported as 8.1 µM.

`CC(C)C[C@@]1(C(=O)O)C[C@H](C(=O)O)[C@H](c2cccs2)N1C(=O)c1ccc(C(F)(F)F)cc1` (stereo in doubt; (+)-1) gave an IC50 [1] of 0.3 µM and an IC50 [2] of 11.9 µM.

Work on `CC(C)C[C@@]1(C(=O)O)C[C@H](C(=O)Nc2ccccc2)[C@H](c2nccs2)N1C(=O)c1ccc(C(C)(C)C)cc1` (stereo in doubt; (-)41) yielded an IC50 [2] of over 100 µM and a CC50 (Hepatitis C virus; Hepatitis C virus) of over 200 µM.

`CC(C)C[C@@]1(C(=O)O)C[C@H](C(=O)O)[C@H](c2cccs2)N1C(=O)c1ccc(C(C)(C)C)cc1` gave an IC50 [1] of 0.75 µM.

`CC(C)C[C@@]1(C(=O)O)C[C@H](C(=O)NS(C)(=O)=O)[C@H](c2nccs2)N1C(=O)c1ccc(C(C)(C)C)cc1` gave an IC50 [1] of 0.04 µM and a Papp [3] of under 0.03 ×10⁻⁶ cm/s.

Work on `COC(=O)[C@H]1C[C@@](CC(C)C)(C(=O)O)N(C(=O)c2ccc(C(F)(F)F)cc2)[C@H]1c1cccs1` yielded an IC50 [1] of over 20 µM.

In the case of `CNC(=O)[C@]1(CC(C)C)C[C@H](C(=O)O)[C@H](c2cccs2)N1C(=O)c1ccc(C(F)(F)F)cc1`, the IC50 [1] is reported as over 20 µM.

`CC(C)C[C@@]1(C(=O)NC(C)C)C[C@H](C(=O)O)[C@H](c2cccs2)N1C(=O)c1ccc(C(F)(F)F)cc1` showed an IC50 [1] of over 20 µM.

`CC(C)C[C@@]1(C(=O)O)C[C@H](C(=O)Nc2ccccc2)[C@H](c2nccs2)N1C(=O)c1ccc(C(C)(C)C)cc1` (stereo in doubt; (+)41) gave an IC50 [2] of 0.5 µM and an IC50 (Hepatitis C virus) of 30 µM.

`CC(C)C[C@@]1(C(=O)O)C[C@H](C(N)=O)[C@H](c2cccs2)N1C(=O)c1ccc(C(F)(F)F)cc1` (stereo in doubt; (-)29) showed an IC50 [1] of over 30 µM.

Work on `CC(C)C[C@@]1(C(=O)OCc2ccccc2)C[C@H](C(=O)O)[C@H](c2cccs2)N1C(=O)c1ccc(C(F)(F)F)cc1` yielded an IC50 [1] of over 20 µM.

`CC(C)C[C@@]1(C(=O)O)C[C@H](C(=O)NS(C)(=O)=O)[C@H](c2nccs2)N1C(=O)c1ccc(C(F)(F)F)cc1` showed an IC50 [1] of 0.41 µM.

`CC(C)C[C@@]1(C(=O)O)C[C@H](C(=O)O)[C@H](c2nccs2)N1C(=O)c1ccc(C(C)(C)C)cc1` (stereo in doubt; (+)28) gave an IC50 [1] of 0.03 µM and an IC50 [2] of 2.1 µM.

`CCNC(=O)[C@]1(CC(C)C)C[C@H](C(=O)O)[C@H](c2cccs2)N1C(=O)c1ccc(C(F)(F)F)cc1` gave an IC50 [1] of over 20 µM.

`COC(=O)[C@]1(CC(C)C)C[C@H](C(=O)O)[C@H](c2cccs2)N1C(=O)c1ccc(C(F)(F)F)cc1` gave an IC50 [1] of over 20 µM.

In the case of `CC(C)C[C@@]1(C(=O)O)C[C@H](C(=O)NS(=O)(=O)C(F)(F)F)[C@H](c2cccs2)N1C(=O)c1ccc(C(F)(F)F)cc1`, the IC50 [1] is reported as 0.2 µM.

Molecule `CC(C)C[C@@]1(C(=O)NCc2ccccc2)C[C@H](C(=O)O)[C@H](c2cccs2)N1C(=O)c1ccc(C(F)(F)F)cc1` has an IC50 [1] of over 20 µM.

In the case of `CNC(=O)[C@H]1C[C@@](CC(C)C)(C(=O)O)N(C(=O)c2ccc(C(C)(C)C)cc2)[C@H]1c1nccs1`, the IC50 [2] is reported as 22 µM.
